Measurements: patent publication US11994512B2, “Single-cell genomic methods to generate ex vivo cell systems that recapitulate in vivo biology with improved fidelity” (Massachusetts Institute of Technology, priority 2018, dated 2024)

Assays:
Format in all cases: cell-based, C57BL/6 mice
[1] = system: LYZ secretion by Paneth cells in organoid culture; experiment: Lysozyme functional secretion assay (EnzChek), basal and CCh-stimulated
Excerpt: In addition to the morphological, proteomic, and transcriptional characterization of PC phenotype in ENR+CD and ENR, Applicants sought to measure physiological function by assessing stimulant-induced secretion of antimicrobials. Applicants assessed the dynamics of LYZ accumulation in media supernatant of cultures following media wash, basally and after stimulation with carbachol (CCh), a cholinergic agonist known to induce PC secretion. […] The observed PC secretion in response to CCh is consistent with observations made in ex vivo crypts, though over appreciably longer time scales, likely due to the added diffusion barrier of the organoid structure and matrigel. Applicants next identified how LYZ secretion changes over the course of differentiation. Beginning with an ISC-enriched population, Applicants assayed for secreted LYZ in cell culture supernatants every two days for six days of ENR+CD culture, following a 24-hour stimulation with CCh or without (basal collection/non-stimulated).
Lysozyme functional secretion assay. Lysozyme secretion was measured using a Lysozyme Assay Kit (EnzChek; Thermo Fisher). Briefly, cells suspended in Matrigel in 24-well plates were washed (basal culture media 3X) and either supplemented with 500 μL of basal culture media or basal culture media plus 10 μM Carbachol (CCh, Sigma Aldrich) for 24 hours at 37° C. Following stimulation, culture plates were spun at high speed (>2000 g) for 5 min at RT to pellet cell debris and loose Matrigel. 25 μL of conditioned supernatant was removed from the top of each well and quantified per manufacturer's protocol.

[2] = system: organoid single cells (clusters ENR, ENR+CV, ENR+CD); experiment: Seq-Well single-cell RNA-sequencing and transcriptional scoring of ENR+CV, ENR and ENR+CD organoids; settings: p<2.2×10^−16
Excerpt: Applicants performed scRNA-seq using the Seq-Well platform on cells from ENR+CD and the precursor ENR+CV conditions to analyze alongside conventional ENR organoids. To ensure experimental robustness, Applicants assessed quality metrics for number of genes, unique molecular identifiers (UMIs), mitochondrial genes, and ribosomal genes by cluster, all of which fell within expectation (FIG. 11).
To assess sub-population structure and provide a more robust measure of composition beyond canonical marker genes, Applicants performed unsupervised KNN graph-based clustering on the captured cells (FIG. 4C,D and Table 1 for full gene lists), distinguishing four clusters in each treatment condition. Applicants then scored individual clusters according to the amount of the transcriptome within each cell dedicated to synthesizing the respective enriched proteins from the bulk proteome data.
To confirm and extend the findings of pathway-based modulation, Applicants scored clusters for enrichment or depletion of canonical growth factor-induced pathways.

[3] = system: in vitro PCs (CD24+ & LYZ+) in ENR+CD culture; NUPR1; experiment: Trifluoperazine (NUPR1 inhibition) treatment of ENR+CD cultures, flow cytometry of viability and CD24/LYZ populations
Excerpt: Lastly, Applicants sought to use this physiologically-improved in vitro PC system (ENR+CD) to identify novel factors potentially supportive of PC survival or differentiation. […] Intriguingly, Nupr1 is a stress-response gene, known to promote cellular survival and senescence through mediation of autophagy, and has primarily been studied in the context of cancer. Autophagy and stress response have repeatedly been implicated through GWAS study in PCs in IBD, however Nupr1 has only ever been reported in a single IBD GWAS study, and its role in PC biology has not been formally investigated. With the model, Applicants sought to test the role of NUPR1 on in vitro PC survival, through the small molecule inhibition of NUPR1 with trifluoperazine (TFP).
Flow cytometry. Cell clusters were isolated from Matrigel as previously described and resuspended in TrypLE Express at 37° C. for 20 mins to dissociate into single cells. Dissociated cells were centrifuged at 300 g for 3 mins at 4° C. The pellet was resuspended in FACS buffer (1% FBS in PBS, Thermo Fisher Scientific) and strained into a 5-mL filter cap tube using a 40 μm filter. The cell suspension was transferred to a flow prep microcentrifuge tube and centrifuged at 300 rcf for 3 min. Cell pellets were resuspended in a Zombie violet dye (BioLegend 100X) in FACS buffer for viability staining followed with 1% PFA fixation for 20 minutes at RT. Pellets were permeabilized for 20 minutes at RT with staining buffer (0.5% Tween-20 in FACS buffer, Sigma), and co-stained with rabbit anti-human FITC-Lyz (100X) and rat anti-mouse APC-CD24 (100X) antibodies diluted in staining buffer for 45 min at RT. Flow cytometry was performed using a BD LSR II HTS (BD; Koch Institute Flow Cytometry Core at MIT). Initial settings and laser voltages were determined with unstained, single channel stains or secondary-only controls (data not shown). Flow cytometry data was analyzed using FlowJo v10.7 software.

[4] = system: intracellular proteome of ENR+CD and ENR organoids; experiment: LC-MS/MS TMT proteomics of ENR+CD versus ENR organoids; settings: for Average logFC: ENR+CD versus ENR organoids, sample pairs in aggregate (n=4, 2 technical replicates from two biological donors); for M1-1 Log2 Median Normalized / M1-2 Log2 Median Normalized / M2-1 Log2 Median Normalized / M2-2 Log2 Median Normalized: protein abundance ratio ENR+CD versus ENR organoids, LC-MS/MS TMT proteomics; for M1-1 Log2 Median Normalized: sample pair M1-1; for M1-2 Log2 Median Normalized: sample pair M1-2; for M2-1 Log2 Median Normalized: sample pair M2-1; for M2-2 Log2 Median Normalized: sample pair M2-2; for change: up = enriched in ENR+CD, down = enriched in ENR, FDR<0.05 and log fold change cut-off
Excerpt: Because PCs are highly secretory, protein-rich cells, Applicants sought to assess the total intracellular proteome between conditions through liquid chromatography mass spectrometry (LC-MS/MS)-based proteomics. Applicants quantified relative protein abundance across eight samples using isobaric mass tag labeling from four ENR and four ENR+CD samples (M1-1 through M2-2, first digit denotes biological donor, second digit denotes technical replicate) (FIG. 3A). Samples were processed and analyzed in a single 10-plex by LC-MS/MS (FIG. 9A).
To affirm the reproducibility of the associated proteins in the ENR+CD-enriched proteome, Applicants performed relative quantification within differentiation sets.
Mass spectrometry proteomics sample preparation, sequencing, and quantification. Organoid cell pellets were isolated from Matrigel with mechanical dissociation and washed (cold PBS 5X) to remove residual extracellular protein. Proteins were extracted from cell pellets with 8 M urea (Sigma), reduced with 5 mM DTT (Thermo Fisher Pierce) for 45 minutes, alkylated with 10 mM IAA (Sigma) for 45 minutes in the dark, and double digested with both Lysyl Endopeptidase “LysC” (Wako) and trypsin (Promega) overnight at RT. A small aliquot of cellular lysate was removed from each sample for protein quantification via the Pierce™ BCA Protein Assay Kit (Pierce). After proteolytic digestion, the samples were quenched using formic acid to a final concentration of 1.0% and subsequently desalted on 10 mg OASIS HLB solid phase columns (Waters).
The peptides were labeled with TMT-10 isobaric mass tag reagent according to manufacturer's instructions (ThermoFisher Scientific). The peptides were labeled at a 1:8 ratio of peptide to TMT reagent, followed by 1-hour incubation at RT with bench top shaking at 850 rpm. After incubation, a […] of labeled tryptic peptide was removed from each labeled condition, desalted with C18 stage tips, and analyzed via LC-MS/MS using a Thermo Fisher Q Exactive Plus Hybrid Mass Spectrometer (QE-Plus) coupled to a Thermo Fisher EASY-nLC 1000 liquid chromatograph to ensure isobaric label incorporation >95%. An additional 1.0 μg of labeled tryptic peptide was removed from each channel, mixed together, desalted on a C18 stage tip, and analyzed via LC-MS to ensure equal relative protein loads. During these quality control steps, the labeled peptides were stored, unquenched at −80° C.

[5] = doses above luM, in combination with ENR+CD for six days

Compound	Average logFC [4]	M1-1 Log2 Median Normalized [4]	M1-2 Log2 Median Normalized [4]	M2-1 Log2 Median Normalized [4]	M2-2 Log2 Median Normalized [4]	change [4]	other results
C[N+](C)(C)CCOC(N)=O [CCh, carbachol]							plateau of LYZ accumulation in supernatant ([1]; 10 μM, six day ENR+CD culture): plateaued around six hours post-wash; LYZ accumulation in media supernatant after stimulation ([1]; 10 μM, six day ENR+CD culture, post-wash): rapid accumulation of LYZ within two hours; functional LYZ secretion (stimulated relative to basal) over differentiation ([1]; 24-hour stimulation, days four and six of ENR+CD culture): Notable increases in functional secretion
Cc1c[nH]c(-c2cnc(NCCNc3ccc(C#N)cn3)nc2-c2ccc(Cl)cc2Cl)n1 [CHIR, CHIR99021]							Wnt target gene enrichment, effect size ([2]; all ENR+CD clusters vs ENR-4): > 0.999
C[C@H](NC(=O)Cc1cc(F)cc(F)c1)C(=O)N[C@H](C(=O)OC(C)(C)C)c1ccccc1 [DAPT]							Notch target gene depletion, effect size ([2]; ENR+CD-4 vs ENR-4): −0.658
CN1CCN(CCCN2c3ccccc3Sc3ccc(C(F)(F)F)cc32)CC1 [TFP, trifluoperazine]							cellular viability ([3]; added for two days following a six-day course of ENR+CD): profound, but not total, decline in cellular viability; toxicity, preference to PCs (CD24+ & LYZ+) and PC-like populations ([3]; concurrent with 6-day ENR+CD differentiation (FIG. 7C)): dose-dependent toxicity; cell death during differentiation [3, 5]: near total cell death; identity of surviving cells [3, 5]: primarily non-Paneth; selectivity of toxicity between cell populations ([3]; two days following six-day ENR+CD): selectively more toxic to PC and PC-progenitor populations relative to non-PC populations; toxicity, preference to PCs (CD24+ & LYZ+) and PC-like populations ([3]; two-day treatment following 6-day ENR+CD differentiation (FIG. 7D)): dose-dependent toxicity
Q60936	−1.292	−1.293	−1.012	−1.8255	−1.133	down	
Q60997	−1.332	−1.643	−0.987	−1.1555	−1.543	down	
